Laboratory results taken from ChEMBL document CHEMBL1136837, “Unified QSAR approach to antimicrobials. 4. Multi-target QSAR modeling and comparative multi-distance study of the giant components of antiviral drug-drug complex networks” (Bioorg Med Chem, 2009).

Test system: Human immunodeficiency virus 1
Assay: Antiviral activity against HIV1
Format: functional, organism-based

SMILES	IC50 [µM]
Cc1cn([C@@H]2C=C(F)[C@H](CO)O2)c(=O)nc1O	100
O=c1nc(O)ccn1[C@@H]1CC(F)(F)[C@H](CO)O1	100
Cc1ncc([N+](=O)[O-])n1CCOC(c1ccccc1)c1cc(Cl)cc(Cl)c1 (stereo unspecified)	45
Nc1ncnc2c1ncn2[C@@H]1CC(F)(F)[C@H](CO)O1	100
O=c1nc(O)ccn1[C@@H]1S[C@H](CO)C=C1F	100
N#Cc1c(Cl)n([C@@H]2O[C@H](CF)[C@@H](O)[C@H]2O)c2cc(Cl)c(Cl)cc12	40
Cc1cn([C@@H]2CC(F)(F)[C@H](CO)O2)c(=O)nc1O	100
O=C(O)c1ccc2ccc(/C=C/c3cc(O)cc(/C=C/c4ccc5ccc(C(=O)O)c(O)c5n4)c3)nc2c1O	100
Cc1cn([C@H]2C=C[C@@](C)(CO)O2)c(=O)[nH]c1=O	100
Nc1nc(O)c2ncn([C@H]3S[C@@H](CO)C=C3F)c2n1	43.5
Nc1nc2c(ncn2C2C=CC(OCP(=O)(O)OP(=O)(O)C(Br)(Br)P(=O)(O)O)C2)c(=O)[nH]1 (stereo unspecified)	200
O=Cc1c(Cl)n([C@@H]2O[C@H](CF)[C@@H](O)[C@H]2O)c2cc(Cl)c(Cl)cc12	20
O=C(O)/C(O)=C/C(=O)c1ccccc1	25
Nc1nc(O)c2ncn([C@@H]3C=C(F)[C@H](CO)O3)c2n1	38.5
Cc1cccnc1N1C(=O)CSC1c1c(F)cccc1F (stereo unspecified)	53.5
O=C(O)c1ccc2ccc(/C=C/c3cccnc3)nc2c1O	100
CC1(C)Oc2ccc3ccc(=O)oc3c2[C@@H](OC(=O)[C@@]23CC[C@](C)(C(=O)O2)C3(C)C)[C@H]1OC(=O)[C@@]12CC[C@](C)(C(=O)O1)C2(C)C [DCK]	16.1
C=C(C)[C@@H]1CC[C@]2(C(=O)NCCCCCCCC(=O)O)CC[C@]3(C)[C@H](CC[C@@H]4[C@@]5(C)CC[C@H](O)C(C)(C)[C@@H]5CC[C@]43C)[C@@H]12	1
C=C(C)[C@@H]1CC[C@]2(C(=O)N[C@@H](CC(C)C)C(=O)O)CC[C@]3(C)[C@H](CC[C@@H]4[C@@]5(C)CC[C@H](O)C(C)(C)[C@@H]5CC[C@]43C)[C@@H]12	3.22
C=C(C)[C@@H]1CC[C@]2(C(=O)NCCC(=O)N[C@@H](CC(C)C)C(=O)O)CC[C@]3(C)[C@H](CC[C@@H]4[C@@]5(C)CC[C@H](O)C(C)(C)[C@@H]5CC[C@]43C)[C@@H]12	39
OC[C@@H]1O[C@@H](n2cnc3c(O)ncnc32)CC1(F)F	100

SMILES	IC50 [µM]
O=S(=O)(c1ccccc1)n1ccc2ccccc21	150
NNC(=O)c1cc2ccccc2n1S(=O)(=O)c1ccccc1	200
Nc1ncnc2c1ncn2[C@H]1C=C(F)[C@H](CO)O1	100
COc1ccc(Cn2nnnc2/C(O)=C/C(=O)c2c[nH]c3ccccc23)cc1	100
OC[C@@H]1O[C@H](n2cnc3c(O)ncnc32)CC1(F)F	100
Cn1cc(C(=O)/C=C(/O)C(=O)O)c2ccccc21	37
COc1ccc2[nH]cc(C(=O)/C=C(\O)c3nnn[nH]3)c2c1	40
O=C(O)c1ccc2ccc(/C=C/c3ccco3)nc2c1O	100
CCOC(=O)c1[nH]c2c(Cl)cccc2c1S(=O)(=O)c1ccccc1N	200
CC1(C)Oc2ccc3cc(CO)c(=O)oc3c2[C@@H](OC(=O)[C@@]23CC[C@](C)(C(=O)O2)C3(C)C)[C@H]1OC(=O)[C@@]12CC[C@](C)(C(=O)O1)C2(C)C	23
CCn1c(C(=O)CC(=O)C(=O)OC)cc2ccccc21	60
C=C(C)[C@@H]1CC[C@]2(C(=O)NCCCCCCCC(=O)N[C@@H](CC(C)C)[C@H](O)CC(=O)O)CC[C@]3(C)[C@H](CC[C@@H]4[C@@]5(C)CC[C@H](O)C(C)(C)[C@@H]5CC[C@]43C)[C@@H]12	0.33
CC(C)OC(=O)c1cn(S(=O)(=O)c2ccccc2)c2ccc(Cl)cc12	200
Nc1nc(=O)n([C@H]2O[C@H](CO)C=C2F)cc1F	100
CCn1cc(C(=O)CC(=O)C(=O)OC)c2ccccc21	19
O=C1CSC(c2c(Cl)cccc2Cl)N1c1cccnc1 (stereo unspecified)	95.1
Nc1ncnc2c1ncn2C1C=CC(OCP(=O)(O)OP(=O)(O)C(Br)(Br)P(=O)(O)O)C1 (stereo unspecified)	1000
Nc1ncnc2c1ncn2C1C=CC(OCP(=O)(O)OP(=O)(O)C(Br)(Br)P(=O)(O)OP(=O)(O)COC2C=CC(n3cnc4c(N)ncnc43)C2)C1 (stereo unspecified)	200
NC(=O)c1cn(S(=O)(=O)c2ccccc2)c2cc(Cl)ccc12	200
Cc1ccnc2c1NC(=O)c1cccnc1N2C1CC1 [NEVIRAPINE]	0.06
C=C[C@@]1(CO)C=C[C@H](n2cc(C)c(=O)[nH]c2=O)O1	100

The next lines start with the values.

IC50 [µM]	SMILES
0.0024	Cc1cc(OCCCS(N)(=O)=O)ccc1NC(=O)COc1ccc(Cl)cc1C(=O)c1cc(F)cc(C(F)(F)F)c1
0.06	Fc1cccc(F)c1Cn1c(-c2ccccc2)nc2ccccc21
0.6	Cc1ncc([N+](=O)[O-])n1CCOC(c1ccccc1)c1ccccc1[N+](=O)[O-] (stereo unspecified)
0.855	O=C1CSC(c2c(F)cccc2F)N1c1ccccn1 (stereo unspecified)
0.003	Cc1ccc(S(=O)(=O)c2c(C(N)=O)[nH]c3ccc(Cl)cc23)cc1
1.38	C=C(C)[C@@H]1CC[C@]2(C(=O)NCCCCCCCC(=O)N[C@@H](CC(C)C)C(=O)O)CC[C@]3(C)[C@H](CC[C@@H]4[C@@]5(C)CC[C@H](O)C(C)(C)[C@@H]5CC[C@]43C)[C@@H]12
0.3	Nc1nc2c(ncn2C2C=CC(OCP(=O)(O)OP(=O)(O)OP(=O)(O)O)C2)c(=O)[nH]1 (stereo unspecified)
0.7	Nc1nc2c(ncn2C2C=CC(OCP(=O)(O)OP(=O)(O)OP(=O)(O)OP(=O)(O)COC3C=CC(n4cnc5c(N)ncnc54)C3)C2)c(=O)[nH]1 (stereo unspecified)
9	CCn1cc(C(=O)/C=C(/O)C(=O)O)c2ccccc21
0.027	Cc1c(O)cccc1C(=O)N[C@@H](CSc1ccccc1)[C@H](O)CN1C[C@H]2CCCC[C@H]2C[C@H]1C(=O)NC(C)(C)C
2	NC(=O)c1[nH]c2ccc(Cl)cc2c1S(=O)(=O)c1ccccc1 [L-737126]
15.7	CC(=O)Oc1ccc(/C=C/C(=O)O[C@H](C(=O)O)[C@H](OC(=O)/C=C/c2ccc(OC(C)=O)c(OC(C)=O)c2)C(=O)O)cc1OC(C)=O
5.4	CC(C)Nc1cccnc1N1CCN(C(=O)c2cc3cc(NS(C)(=O)=O)ccc3[nH]2)CC1 [DELAVIRDINE]
8.6	Nc1nc(NC2CC2)c2ncn([C@H]3C=C[C@@H](CO)O3)c2n1
1.9	CC(C)c1ccc(Sc2c(C(N)=O)[nH]c3ccc(Cl)cc23)cc1
0.064	O=C1CSC(c2c(F)cccc2Cl)N1c1cccc(Br)n1 (stereo unspecified)
0.089	Nc1ccn([C@@H]2C=C(F)[C@H](CO)O2)c(=O)n1
11.6	CC(=O)OCc1cc2ccc3c(c2oc1=O)[C@@H](OC(=O)[C@@]12CC[C@](C)(C(=O)O1)C2(C)C)[C@@H](OC(=O)[C@@]12CC[C@](C)(C(=O)O1)C2(C)C)C(C)(C)O3
1.7	Fc1cccc(F)c1Cn1c(-c2c(F)cccc2F)nc2ccccc21
10	NNC(=O)c1[nH]c2ccc(Cl)cc2c1Sc1ccc(Cl)cc1
9	NC(=O)c1[nH]c2ccccc2c1Sc1cc(Cl)ccc1N
0.05	Cc1ccc(S(=O)(=O)c2c(C(=O)NN)[nH]c3ccc(Cl)cc23)cc1
5	NNC(=O)c1[nH]c2ccc(Cl)cc2c1Sc1ccc(F)cc1
15.4	CC1(C)Oc2ccc3cc(CN)c(=O)oc3c2[C@@H](OC(=O)[C@@]23CC[C@](C)(C(=O)O2)C3(C)C)[C@H]1OC(=O)[C@@]12CC[C@](C)(C(=O)O1)C2(C)C
0.03	CC(c1cc(=O)[nH]c(SC2CCCC2)n1)c1c(F)cccc1F (stereo unspecified)

IC50 [µM]	SMILES
0.08	Cc1c(Cc2c(F)cccc2F)nc(SC2CCCC2)[nH]c1=O
0.1	O=C(O)C(=O)CC(=O)c1cccc(Cc2ccccc2)c1
0.13	CC(C)(C)c1ccc(S(=O)(=O)c2c(C(N)=O)[nH]c3ccc(Cl)cc23)cc1
11.5	Nc1nc(F)nc2c1ncn2[C@H]1S[C@@H](CO)C=C1F
0.001	Cc1cccc(S(=O)(=O)c2c(C(N)=O)[nH]c3ccc(Cl)cc23)c1
3.1	NC(=O)c1[nH]c2ccc(Cl)cc2c1Sc1ccc(Cl)cc1
13.3	CC(=O)NC1=CC(=O)c2ccc(-c3[nH]c(C(=O)O)cc4c5ccccc5nc3-4)nc2C1=O
0.01	Cc1cccc(C)c1C(=O)N1CCC(C)(N2CCC(Cc3ccc(Br)cc3)CC2)CC1
0.03	O=C1CSC(c2c(F)cccc2F)N1c1cccc(Br)n1 (stereo unspecified)
7.19	O=C1CSC(c2c(F)cccc2F)N1c1ccc(Cl)cn1 (stereo unspecified)
0.05	O=C(c1cc(Cc2ccccc2)ccn1)c1ccc2cccnc2c1O
0.2	Nc1ncnc2c1ncn2C1C=CC(OCP(=O)(O)OP(=O)(O)OP(=O)(O)O)C1 (stereo unspecified)
13.7	Cc1cc(=O)oc2c3c(c(CBr)cc12)OC(C)(C)[C@H](OC(=O)[C@@]12CC[C@](C)(C(=O)O1)C2(C)C)[C@@H]3OC(=O)[C@@]12CC[C@](C)(C(=O)O1)C2(C)C
0.44	Nc1ncnc2c1ncn2[C@@H]1O[C@H](CO)C=C1F
0.19	O=C(/C=C/c1ccc(O)c(O)c1)NCC(OC(=O)/C=C/c1ccc(O)c(O)c1)C(=O)O (racemic)
14.1	CCN(CC)Cc1cc2ccc3c(c2oc1=O)[C@@H](OC(=O)[C@@]12CC[C@](C)(C(=O)O1)C2(C)C)[C@@H](OC(=O)[C@@]12CC[C@](C)(C(=O)O1)C2(C)C)C(C)(C)O3
0.00052	COC[C@@H](c1ccc(C(F)(F)F)cc1)N1CCN(C2(C)CCN(C(=O)c3c(C)ncnc3C)CC2)C[C@@H]1C [VICRIVIROC]
0.4	Fc1cccc(F)c1Cn1c(-c2c(F)cccc2F)nc2c(Cl)cccc21
11.6	Nc1nc(=O)n([C@@H]2S[C@H](CO)C=C2F)cc1F
14.1	CC(=O)OCc1cc2c(C)cc(=O)oc2c2c1OC(C)(C)[C@H](OC(=O)[C@@]13CC[C@](C)(C(=O)O1)C3(C)C)[C@@H]2OC(=O)[C@@]12CC[C@](C)(C(=O)O1)C2(C)C
0.0003	CCOC(=O)Cc1c(N)nc(N)nc1OCCOCP(=O)(O)O
7	Cc1cn([C@H]2C=C[C@@](C#N)(CO)O2)c(=O)[nH]c1=O
0.004	CO/N=C(\c1ccc(Br)cc1)C1CCN(C2(C)CCN(C(=O)c3c(C)cccc3O)CC2)CC1
1.28	O=C(O)/C(O)=C/C(=O)c1ccc(C(=O)/C=C(\O)C(=O)O)cc1
